Measured values reported in PMC7125515 (Bioorganic & Medicinal Chemistry, 2011).
Entries after “also recorded” stand apart in the source; their conditions may differ.

Legend:
herpes- and poxviruses = experiment: organism not typed; format: cell-based; conditions: for Selectivity index (ratio CC50:EC50), HCMV / Selectivity index (ratio CC50:EC50), HSV / Selectivity index (ratio CC50:EC50), VZV: CC50 in HEL; for Selectivity index (ratio CC50:EC50), VZV: different VZV strains; for Activity against herpes- and poxviruses (in words): DNA viruses: VACV, HSV-1, HSV-2, TK- HSV-1, VZV; for Selectivity index (ratio CC50:EC50), HCMV / Activity against herpes- and poxviruses (in words): HCMV
[1] = test system: Vaccinia virus Lederle strain; format: cell-based
[2] = target: hypoxanthine-guanine-xanthine phosphoribosyltransferase (HGXPRT); conditions: read-out: Ki, HGXPRT; Plasmodium falciparum enzyme; cited from earlier work

Nc1ccn(C[C@@H](CO)OCP(=O)(O)O)c(=O)n1.O.O [Cidofovir, reference compound]
Selectivity index (ratio CC50:EC50), HCMV (herpes- and poxviruses): 195–282 | Selectivity index (ratio CC50:EC50), HSV (herpes- and poxviruses): 322–363 | Selectivity index (ratio CC50:EC50), VZV (herpes- and poxviruses): 880–2540

Nc1ncnc2c1ncn2CCOC(COCc1ccccc1)CP(=O)(O)O (centres unmarked) [Compound 9d, 9-[2-(3-Benzyloxy-1-phosphonopropan-2-yloxy)ethyl]adenine]
Activity against herpes- and poxviruses (in words) (herpes- and poxviruses): inactive

CC(CP(=O)(O)O)OCCn1cnc2c(N)ncnc21 (centres unmarked) [Compound 9a, 9-[2-(1-Phosphonopropan-2-yloxy)ethyl]adenine]
Selectivity index (ratio CC50:EC50), vaccinia virus [1]: < 1 | Selectivity index (ratio CC50:EC50), HCMV (herpes- and poxviruses): 14–15 | Selectivity index (ratio CC50:EC50), HSV (herpes- and poxviruses): 6–10 | Selectivity index (ratio CC50:EC50), VZV (herpes- and poxviruses): 120–190 | EC50 (herpes- and poxviruses; read-out: EC50 values against different human herpesviruses (range)): 70 to 2300 nM

Nc1nc2c(ncn2CCOCCP(=O)(O)O)c(=O)[nH]1 [PEEG]
Ki [2]: 100 nM

Cc1cn(CCOC(CO)CP(=O)(O)O)c(=O)[nH]c1=O (centres unmarked) [Compound 15e, 9-[2-(3-Hydroxy-1-phosphonopropan-2-yloxy)ethyl]thymine]
Activity against herpes- and poxviruses (in words) (herpes- and poxviruses): inactive

O=c1[nH]cnc2c1ncn2CCOCCP(=O)(O)O [PEEHx]
Ki [2]: 300 nM

Nc1ncnc2c1ncn2CCOC(CO)CP(=O)(O)O (centres unmarked) [Compound 9e, 9-[2-(3-Hydroxy-1-phosphonopropan-2-yloxy)ethyl]adenine]
Activity against herpes- and poxviruses (in words) (herpes- and poxviruses): inactive; also recorded: annihilated the anti-DNA virus activity

CC(CP(=O)(O)O)OCCn1cnc2c(N)nc(N)nc21 (centres unmarked) [Compound 14, 9-[2-(1-Phosphonopropan-2-yloxy)ethyl]diaminopurine]
Activity against herpes- and poxviruses (in words) (herpes- and poxviruses): inactive
